# Source: ChEMBL document CHEMBL5291721, “A preclinical secondary pharmacology resource illuminates target-adverse drug reaction associations of marketed drugs” (Nat Commun, 2023)
# Tests used:
# [1] = molecular target: Glutamate receptor ionotropic, NMDA 1 (Rattus norvegicus, UniProt P35439)
# B2 bradykinin receptor = molecular target: T1, B2 bradykinin receptor (Homo sapiens, UniProt P30411)
# T1 sequence (P30411 whole entry): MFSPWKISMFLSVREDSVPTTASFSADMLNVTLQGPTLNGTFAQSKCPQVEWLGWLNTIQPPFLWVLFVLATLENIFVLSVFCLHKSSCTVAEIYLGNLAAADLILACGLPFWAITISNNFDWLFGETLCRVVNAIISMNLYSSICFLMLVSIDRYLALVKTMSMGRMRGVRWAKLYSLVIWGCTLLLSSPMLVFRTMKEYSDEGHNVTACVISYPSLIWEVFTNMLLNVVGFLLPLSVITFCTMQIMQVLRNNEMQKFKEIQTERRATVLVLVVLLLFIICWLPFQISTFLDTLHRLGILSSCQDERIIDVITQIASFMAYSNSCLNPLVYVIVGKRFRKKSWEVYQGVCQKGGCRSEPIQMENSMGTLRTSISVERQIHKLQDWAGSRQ
# [2] = molecular target: Beta-2 adrenergic receptor (Homo sapiens, UniProt P07550)
# D(1A) dopamine receptor [3] = molecular target: T2, D(1A) dopamine receptor (Homo sapiens, UniProt P21728); type: functional, cell-based
# [4] = molecular target: Kappa-type opioid receptor (Homo sapiens, UniProt P41145)
# [5] = molecular target: T3, Equilibrative nucleoside transporter 1 (Homo sapiens, UniProt Q99808)
# T3 sequence (Q99808 whole entry): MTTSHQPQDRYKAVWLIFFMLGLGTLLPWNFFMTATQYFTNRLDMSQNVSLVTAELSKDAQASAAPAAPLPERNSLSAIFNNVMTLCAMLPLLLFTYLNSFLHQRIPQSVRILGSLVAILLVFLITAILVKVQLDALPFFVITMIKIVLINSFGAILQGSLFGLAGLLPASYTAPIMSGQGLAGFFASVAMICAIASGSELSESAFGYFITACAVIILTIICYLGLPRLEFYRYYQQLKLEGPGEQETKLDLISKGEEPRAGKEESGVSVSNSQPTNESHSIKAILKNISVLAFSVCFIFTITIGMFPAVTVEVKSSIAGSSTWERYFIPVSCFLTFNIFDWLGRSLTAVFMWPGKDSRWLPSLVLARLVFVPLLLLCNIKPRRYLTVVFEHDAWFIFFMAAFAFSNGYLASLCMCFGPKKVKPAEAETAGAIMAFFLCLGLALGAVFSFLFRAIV
# [6] = molecular target: T4, Amine oxidase [flavin-containing] A (Homo sapiens, UniProt P21397); type: functional
# T4 sequence (P21397 whole entry): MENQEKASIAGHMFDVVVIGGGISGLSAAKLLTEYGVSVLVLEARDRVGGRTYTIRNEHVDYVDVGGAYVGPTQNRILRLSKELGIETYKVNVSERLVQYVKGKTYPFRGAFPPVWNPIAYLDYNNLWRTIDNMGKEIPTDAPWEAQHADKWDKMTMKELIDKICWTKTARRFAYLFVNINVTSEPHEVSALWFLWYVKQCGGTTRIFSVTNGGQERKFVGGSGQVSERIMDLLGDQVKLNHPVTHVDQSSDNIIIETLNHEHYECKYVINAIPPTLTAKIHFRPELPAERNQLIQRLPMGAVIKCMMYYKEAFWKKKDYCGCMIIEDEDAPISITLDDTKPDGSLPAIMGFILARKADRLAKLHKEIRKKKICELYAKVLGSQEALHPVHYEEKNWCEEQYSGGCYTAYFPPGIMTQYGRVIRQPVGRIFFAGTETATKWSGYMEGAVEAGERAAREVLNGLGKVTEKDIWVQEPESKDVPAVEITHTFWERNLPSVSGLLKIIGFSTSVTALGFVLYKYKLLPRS
# [7] = molecular target: T5, Muscarinic acetylcholine receptor M2 (Homo sapiens, UniProt P08172); type: functional, cell-based
# T5 sequence (P08172 whole entry): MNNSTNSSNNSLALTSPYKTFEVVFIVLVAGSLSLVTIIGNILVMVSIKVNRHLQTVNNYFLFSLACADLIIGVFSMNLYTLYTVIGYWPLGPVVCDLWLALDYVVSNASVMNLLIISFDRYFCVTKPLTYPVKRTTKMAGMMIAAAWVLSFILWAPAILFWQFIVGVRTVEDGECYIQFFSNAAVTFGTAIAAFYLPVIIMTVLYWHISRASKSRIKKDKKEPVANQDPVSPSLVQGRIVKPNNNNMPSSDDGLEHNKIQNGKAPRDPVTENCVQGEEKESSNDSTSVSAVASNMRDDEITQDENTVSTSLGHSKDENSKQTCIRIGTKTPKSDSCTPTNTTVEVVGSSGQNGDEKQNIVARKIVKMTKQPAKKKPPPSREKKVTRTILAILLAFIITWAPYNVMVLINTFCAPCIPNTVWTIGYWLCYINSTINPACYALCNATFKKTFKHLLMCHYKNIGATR
# Histamine H3 receptor = Histamine H3 receptor (Homo sapiens, UniProt Q9Y5N1)
# [8] = molecular target: T6, Alpha-1A adrenergic receptor (Homo sapiens, UniProt P35348); type: functional, cell-based
# T6 sequence (P35348 whole entry): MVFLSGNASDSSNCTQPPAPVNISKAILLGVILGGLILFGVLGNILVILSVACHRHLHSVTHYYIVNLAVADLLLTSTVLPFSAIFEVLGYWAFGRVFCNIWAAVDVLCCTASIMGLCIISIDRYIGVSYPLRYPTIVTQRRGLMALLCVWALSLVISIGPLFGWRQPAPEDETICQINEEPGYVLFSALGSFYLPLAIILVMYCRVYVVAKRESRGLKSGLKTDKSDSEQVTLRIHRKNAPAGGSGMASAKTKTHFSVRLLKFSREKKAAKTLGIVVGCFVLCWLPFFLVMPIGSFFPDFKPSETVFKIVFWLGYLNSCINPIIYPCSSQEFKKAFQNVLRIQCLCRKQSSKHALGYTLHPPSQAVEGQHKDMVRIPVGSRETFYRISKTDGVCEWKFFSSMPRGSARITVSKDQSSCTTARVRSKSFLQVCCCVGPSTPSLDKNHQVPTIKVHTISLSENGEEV
# D(1A) dopamine receptor [9] = molecular target: T2, D(1A) dopamine receptor
# Also: assay procedure not described here.
# Beta-2 adrenergic receptor, sequence (P07550 whole entry): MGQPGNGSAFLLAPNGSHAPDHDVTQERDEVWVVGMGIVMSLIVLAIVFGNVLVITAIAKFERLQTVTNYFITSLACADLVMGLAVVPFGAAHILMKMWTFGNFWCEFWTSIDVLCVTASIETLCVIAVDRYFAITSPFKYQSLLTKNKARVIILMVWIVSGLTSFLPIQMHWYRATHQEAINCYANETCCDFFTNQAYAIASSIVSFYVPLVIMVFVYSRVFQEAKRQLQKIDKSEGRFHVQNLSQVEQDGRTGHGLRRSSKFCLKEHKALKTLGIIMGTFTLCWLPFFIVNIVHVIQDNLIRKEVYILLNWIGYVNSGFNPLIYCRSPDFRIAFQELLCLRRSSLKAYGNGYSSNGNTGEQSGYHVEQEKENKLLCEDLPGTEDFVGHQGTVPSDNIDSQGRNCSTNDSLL
# Kappa-type opioid receptor, sequence (P41145 whole entry): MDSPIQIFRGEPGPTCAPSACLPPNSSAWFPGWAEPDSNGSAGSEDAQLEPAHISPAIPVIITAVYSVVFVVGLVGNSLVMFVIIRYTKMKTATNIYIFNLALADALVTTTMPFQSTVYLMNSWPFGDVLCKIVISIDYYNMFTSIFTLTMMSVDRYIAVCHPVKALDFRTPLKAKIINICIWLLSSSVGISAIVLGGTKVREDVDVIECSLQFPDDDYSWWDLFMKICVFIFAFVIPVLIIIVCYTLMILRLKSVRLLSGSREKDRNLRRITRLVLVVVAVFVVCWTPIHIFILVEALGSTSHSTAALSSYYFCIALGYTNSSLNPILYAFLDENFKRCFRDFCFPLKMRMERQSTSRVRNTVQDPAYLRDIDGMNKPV
# Histamine H3 receptor, sequence (Q9Y5N1 whole entry): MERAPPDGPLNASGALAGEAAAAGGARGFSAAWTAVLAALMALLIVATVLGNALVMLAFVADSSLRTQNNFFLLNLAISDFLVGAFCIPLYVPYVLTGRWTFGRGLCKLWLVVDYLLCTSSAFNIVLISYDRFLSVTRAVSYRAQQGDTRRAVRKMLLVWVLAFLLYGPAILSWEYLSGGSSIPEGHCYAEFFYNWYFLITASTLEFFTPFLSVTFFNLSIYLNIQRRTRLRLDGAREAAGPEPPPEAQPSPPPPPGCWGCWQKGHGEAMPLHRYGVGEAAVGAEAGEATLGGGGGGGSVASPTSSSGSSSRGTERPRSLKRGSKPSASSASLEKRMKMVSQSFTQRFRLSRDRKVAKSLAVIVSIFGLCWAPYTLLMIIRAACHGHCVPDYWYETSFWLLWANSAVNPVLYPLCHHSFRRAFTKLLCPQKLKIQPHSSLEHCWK
# T2 sequence (P21728 whole entry): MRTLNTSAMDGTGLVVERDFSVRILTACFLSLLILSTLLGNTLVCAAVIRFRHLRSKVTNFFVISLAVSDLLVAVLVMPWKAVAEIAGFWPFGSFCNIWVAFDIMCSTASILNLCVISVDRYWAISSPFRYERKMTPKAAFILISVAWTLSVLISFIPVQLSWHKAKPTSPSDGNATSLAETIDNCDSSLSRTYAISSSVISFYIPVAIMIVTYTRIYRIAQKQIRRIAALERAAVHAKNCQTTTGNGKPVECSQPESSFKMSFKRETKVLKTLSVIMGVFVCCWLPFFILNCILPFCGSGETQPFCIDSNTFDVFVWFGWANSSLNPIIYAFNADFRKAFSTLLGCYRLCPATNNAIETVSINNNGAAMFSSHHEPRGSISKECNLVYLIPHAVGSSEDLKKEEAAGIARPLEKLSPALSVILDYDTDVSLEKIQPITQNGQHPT
SMILES,AC50 [1] [µM],AC50 (B2 bradykinin receptor) [µM],AC50 [2] [µM],AC50 (D(1A) dopamine receptor [3]) [µM],AC50 [4] [µM],AC50 [5] [µM],AC50 [6] [µM],AC50 [7] [µM],AC50 (Histamine H3 receptor) [µM],AC50 [8] [µM],AC50 (D(1A) dopamine receptor [9]) [µM]
C[N+]1(C)CCC(=C(c2ccccc2)c2ccccc2)CC1,> 10,> 30,> 10,> 10,> 10,> 10,> 10,,,,
CN(C)Cc1nnc2n1-c1ccc(Cl)cc1C(c1ccccc1)=NC2 [ADINAZOLAM],> 10,> 10,> 10,> 10,3.29,> 10,> 10,> 10,> 10,,
CN(C)C/C=C/C(=O)Nc1cc2c(Nc3ccc(F)c(Cl)c3)ncnc2cc1O[C@H]1CCOC1 [AFATINIB],> 30,> 30,,> 30,> 30,> 30,> 30,> 30,> 30,> 30,
Cc1ccccc1-n1c(CF)nc2ccc(N)cc2c1=O [AFLOQUALONE],> 10,> 30,> 30,> 30,> 10,> 30,> 10,> 10,> 30,,
CCC1(c2ccc(N)cc2)CCC(=O)NC1=O (stereo unspecified) [AMINOGLUTETHIMIDE],> 30,> 30,,> 30,> 30,> 30,> 30,> 30,> 30,> 30,
CC(Cc1cccc(C(F)(F)F)c1)NCCOC(=O)c1ccccc1 (stereo unspecified) [BENFLUOREX],> 30,> 30,,> 30,> 30,,> 30,,> 30,14,
CCOC(=O)c1ccc(N)cc1 [BENZOCAINE],> 10,> 10,> 10,> 10,> 10,> 10,19,> 10,> 10,,
C[C@H](CCC(=O)O)[C@H]1CC[C@H]2[C@@H]3[C@H](O)C[C@@H]4C[C@H](O)CC[C@]4(C)[C@H]3C[C@H](O)[C@]12C [CHOLIC ACID],,,,,,,,,,,> 30
C/C=C(/C(=C/C)c1ccc(O)cc1)c1ccc(O)cc1 [DIENESTROL],> 10,> 10,> 10,> 10,> 10,> 30,> 10,> 10,,,
COc1ccc([C@@H]2CC(=O)c3c(O)cc(O)cc3O2)cc1O [HESPERETIN],> 10,> 10,> 10,> 30,> 10,> 10,> 10,> 10,,,
CNCCc1ccc(OC(=O)C(C)C)c(OC(=O)C(C)C)c1 [IBOPAMINE],> 30,> 30,> 30,0.0442,> 30,> 30,> 30,> 30,> 30,,
CCC[C@@H]1C[C@@H](C(=O)N[C@@H]([C@H]2O[C@H](SC)[C@H](O)[C@@H](O)[C@H]2O)[C@@H](C)O)N(C)C1 [LINCOMYCIN],> 10,> 10,> 10,> 10,> 10,> 10,> 10,> 10,,> 30,
C=C1c2cccc(O)c2C(=O)C2=C(O)[C@]3(O)C(=O)C(C(N)=O)=C(O)[C@@H](N(C)C)[C@@H]3[C@@H](O)[C@H]12 [METHACYCLINE],> 10,> 30,> 10,> 10,> 10,> 10,> 10,> 10,,,
Cc1ccccc1N1C(=O)c2cc(S(N)(=O)=O)c(Cl)cc2NC1C (stereo unspecified) [METOLAZONE],> 10,> 10,> 10,> 10,> 10,> 10,> 10,> 10,,,
O=C(O)c1cccnc1Nc1cccc(C(F)(F)F)c1 [NIFLUMIC ACID],> 10,> 10,> 10,> 10,> 10,> 10,> 10,> 10,,,
OC[C@H]1O[C@@H](n2cnc3c2NC=NC[C@H]3O)C[C@@H]1O [PENTOSTATIN],> 30,> 30,,> 30,> 30,> 30,> 30,> 30,> 30,,
CC(C)c1cccc(C(C)C)c1O [PROPOFOL],,,,> 30,,> 30,> 30,> 30,> 30,> 30,
CN[C@@H](C)[C@@H](O)c1ccccc1 [PSEUDOEPHEDRINE],> 10,> 30,> 10,> 10,> 10,> 30,> 10,> 10,> 10,,
CCCN1CC(NS(=O)(=O)N(CC)CC)CC2Cc3c(O)cccc3CC21 (stereo unspecified) [QUINAGOLIDE],> 30,> 30,> 30,0.15,1.7,,> 30,> 30,> 30,,
O=C1OC(OC(=O)c2cccnc2Nc2cccc(C(F)(F)F)c2)c2ccccc21 (stereo unspecified) [TALNIFLUMATE],> 30,> 30,,> 30,> 30,> 30,> 30,> 30,> 30,,
CCOC(=O)c1c(CSc2ccccc2)n(C)c2cc(Br)c(O)c(CN(C)C)c12 [UMIFENOVIR],> 30,> 30,> 30,> 30,> 30,> 30,> 30,> 30,> 30,,
